# Measured values as given in ChEMBL document CHEMBL3045763, “Synthesis and evaluation of anti-proliferative activity of 1,4-disubstituted phthalazines” (Med Chem Res, 2012).
# System: MCF7
# Experiment: Antiproliferative activity against Homo sapiens (human) MCF7 cells after 72 hr by SRB assay
# Assay type: functional, cell-based
# Settings: MCF7, 72 h
row,SMILES,IC50 [µM]
1,COc1ccc(N2CCN(c3nnc(-c4ccc(Br)cc4)c4ccccc34)CC2)cc1,17.5
2,CCOc1ccccc1N1CCN(c2nnc(-c3ccc(Br)cc3)c3ccccc23)CC1,4.77
3,Brc1ccc(-c2nnc(N(Cc3ccccc3)Cc3ccccc3)c3ccccc23)cc1,4.8
4,Brc1ccc(-c2nnc(N3CCCCC3)c3ccccc23)cc1,9.1
5,Brc1ccc(-c2nnc(N3CCN(c4ccccc4)CC3)c3ccccc23)cc1,9.7
6,COc1ccccc1N1CCN(c2nnc(-c3ccc(Br)cc3)c3ccccc23)CC1,8.6

# These reach a lower IC50. Values come first.
row,IC50 [µM],SMILES
1,2.3,Brc1ccc(-c2nnc(Sc3nc4ccccc4s3)c3ccccc23)cc1
2,1.9,Brc1ccc(-c2nnc(N3CCOCC3)c3ccccc23)cc1
3,1.7,Clc1cccc(Cl)c1Nc1nnc(-c2ccc(Br)cc2)c2ccccc12
4,1.7,Clc1ncccc1Nc1nnc(-c2ccc(Br)cc2)c2ccccc12
5,1.5,CN1CCN(c2nnc(-c3ccc(Br)cc3)c3ccccc23)CC1
6,1.4,Brc1ccc(-c2nnc(Nc3nccs3)c3ccccc23)cc1
